In paper PMC5397059, “Design, synthesis and structure-activity relationship study of wollamide B; a new potential anti TB agent” (PLoS ONE, 2017):
Values after ≈ are worked out from the molar mass of the structure shown. Values joined by “and” are separate entries in the source; they are usually repeats but may differ in a detail not shown here. Equal entries are not always repeated. Non-standard residues stand in square brackets, D forms with d. Residues, ends and D or L forms follow the SMILES beside them. dOrn = NCCC[C@@H](N)C(=O)O

What was measured:
mycobacteria = system: mycobacteria; design: method as in PMID 25229313; details: cited from earlier work
[1] = Intrinsic clearance (CLint) assay, human liver microsomes; assay type: in vitro ADME; details: for CLint Human: human liver microsomes; for half-life at 0.5 µM: human, pooled human liver microsomes, pH 7.4, human liver microsomes, read-out: Microsomal t1/2 Human; for % LBF Human: liver blood flow; for CLpred Human: predicted metabolic clearance
How it was run: (§1)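 Pooled liver microsomes (0.5 mg/mL protein) with test compound at 0.5 μM (0.5% DMSO), 5 mM MgCl2 and pH 7.4 phosphate buffer were run at 37°C; 1 mM NADPH started the reaction. Samples at 0-45 min were analysed by LC-MS/MS; t1/2 and CLint were derived from the ln peak-area-ratio slope.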

[2] = Chemi-Luminescent Nitrogen Detection (CLND) kinetic solubility assay; assay type: physicochemical; details: phosphate buffered saline, pH 7.4; kinetic aqueous solubility by CLND; read-out: Solubility
How it was run: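 10 mM DMSO stock diluted 5 μL into 100 uL pH 7.4 phosphate buffered saline, equilibrated 1 h at room temperature, then filtered. Filtrate quantified by calibrated flow-injection CLND; standard error ±30 μM, upper limit 500 μM.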

[3] = Artificial membrane permeability assay; assay type: in vitro ADME; details: PAMPA, pH 7.4; passive artificial membrane permeability; read-out: Permeability
How it was run: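 PAMPA using L-α-phosphatidylcholine in cholesterol decane as the membrane, with 50 mM phosphate buffer containing 0.5% encapsin at pH 7.4 on both sides. Compound added to donor; plates shaken 3 h at room temperature in duplicate. Donor and receiver concentrations measured by HPLC; permeability reported in nm/sec.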

[4] = Plasma stability assay, mouse plasma; assay type: in vitro ADME; details: CD1, mouse, plasma; 2 hours at 37°C, triplicates; read-out: Plasma stability (% remaining) Mouse
Description: (§2) Plasma stability of the compounds was assessed in CD1 mouse and human plasma. Plasma was spiked with 1 μL of a 10 mM of each test compound solution to produce a 1 uM incubation. Three separate 300 μl aliquots were then taken from each tube and incubated at 37°C for 2 h. At each time point (0, 15, 30, 60 and 120 min), 50 μL of plasma were collected from each sample. Samples were extracted by protein precipitation with 250 μL of 0.1% AcOH acetonitrile methanol 3–1 (v/v) containing 1uM internal standard and centrifuged for 10min at 2800rpm. Supernatants were collected prior the injection onto an LC-MS/MS system. Analyte/Internal standard peak area ratios were referenced to the zero time-point samples as 100% in order to determine the percentage of compound remaining for each time-point. Ln plots of the % remaining for each compound were used to determine the half-life for the plasma incubations.

Chrom logD assay = assay type: physicochemical; details: pH 7.4; read-out: Log D
How it was run: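 Reversed-phase C18 HPLC with fast acetonitrile gradient starting from 100% pH 7.4 buffer; CHI from retention times via calibration standards. ChromlogD = 0.0857CHI − 2.00; assay error ±3 CHI or ±0.25 ChromlogD.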

Mtb H37Rv = details: duplicate; analogues
[5] = Intrinsic clearance (CLint) assay, mouse liver microsomes; assay type: in vitro ADME; details: for % LBF Mouse: liver blood flow; for CLint Mouse: mouse liver microsomes; for half-life at 0.5 µM: mouse, pooled mouse liver microsomes, pH 7.4, read-out: Microsomal t1/2 Mouse; for CLpred Mouse: predicted metabolic clearance
How it was run: as §1

human serum albumin [6] = target: T1, human serum albumin (Homo sapiens, UniProt P02768); test: Human serum albumin (HSA) binding assay; assay type: in vitro ADME; details: human serum albumin binding
T1 sequence (P02768 25-609): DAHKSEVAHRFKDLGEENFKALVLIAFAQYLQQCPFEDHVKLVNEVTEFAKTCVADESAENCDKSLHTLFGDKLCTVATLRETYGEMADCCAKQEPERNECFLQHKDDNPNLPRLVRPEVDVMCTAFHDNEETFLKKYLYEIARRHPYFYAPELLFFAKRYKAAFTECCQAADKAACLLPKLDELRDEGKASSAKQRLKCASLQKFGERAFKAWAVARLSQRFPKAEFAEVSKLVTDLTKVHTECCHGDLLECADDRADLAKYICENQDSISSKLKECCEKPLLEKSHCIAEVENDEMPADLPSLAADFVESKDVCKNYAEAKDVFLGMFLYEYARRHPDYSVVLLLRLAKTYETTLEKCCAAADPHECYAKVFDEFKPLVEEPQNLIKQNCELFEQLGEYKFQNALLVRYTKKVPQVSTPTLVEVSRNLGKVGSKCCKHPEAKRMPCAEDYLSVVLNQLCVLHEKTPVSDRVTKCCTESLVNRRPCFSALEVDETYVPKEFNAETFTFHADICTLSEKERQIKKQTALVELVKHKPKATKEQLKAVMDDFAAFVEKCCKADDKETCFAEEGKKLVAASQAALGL
How it was run: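 Gradient retention times measured on an immobilized HSA HPLC column with UV detection. Retention times converted to HSA binding values by a linear calibration against reference compounds of known binding, run before each batch.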

[7] = Plasma stability assay, human plasma; assay type: in vitro ADME; details: human, plasma; 2 hours at 37°C, triplicates; read-out: Plasma stability (% remaining) Human
Description: as §2

human serum albumin [8] = target: T1, human serum albumin; test: HPLC retention on an immobilised HSA column; HSA immobilised on the column; gradient retention times of the compounds converted to % HSA binding by a calibration set of compounds of known HSA binding; UV detection

Compound | antimycobacterial activity (mycobacteria) | CLint Human [1] [mL/min/g tissue] | half-life at 0.5 µM [1] [h] | % LBF Human [1] [%] | CLpred Human [1] [mL/min/kg] | solubility kinetic at 1 h [2] [µg/mL] | Papp at 3 h [3] [×10⁻⁶ cm/s] | remaining at 2 h, 1 uM [4] [%] | chromatographic logD (Chrom logD assay) | MIC against Mtb H37Rv (Mtb H37Rv) [µM] | % LBF Mouse [5] [%] | CLint Mouse [5] [mL/min/g tissue] | half-life at 0.5 µM [5] [h] | CLpred Mouse [5] [mL/min/kg] | % HSA (human serum albumin [6]) | remaining at 2 h, 1 uM [7] [%] | % Human serum albumin binding (human serum albumin [8]) [%]
desotamide B | no antimycobacterial activity | – | – | – | – | – | – | – | – | – | – | – | – | – | – | – | –
CC(C)C[C@@H]1NC(=O)[C@H](Cc2c[nH]c3ccccc23)NC(=O)[C@@H](CCCN)NC(=O)[C@H](C)NC(=O)[C@H](C(C)C)NC(=O)[C@@H](CC(C)C)NC1=O [Compound 4c] (cyclo(A[dOrn]WL[dL]V)) | – | <0.40 | > 2.31 | <35.08 | 6.31 | 143 (≈ 205 µM) | < 0.3 | 100 | 2 | 20 (≈ 13.9 µg/mL) | <16.27 | <0.48 | > 2.31 | <20.50 | 83% and 82.76% | 95 | –
wollamide B (peptide) | – | – | – | – | – | – | – | – | – | – | – | – | – | – | – | – | 72.7
CC(C)C[C@@H]1NC(=O)[C@@H](CC(C)C)NC(=O)[C@@H](CCCN)NC(=O)[C@H](CC(N)=O)NC(=O)[C@H](C(C)C)NC(=O)[C@H](Cc2c[nH]c3ccccc23)NC1=O [Compound 21c] (cyclo(LWVN[dOrn][dL])) | – | <0.40 | > 2.31 | <35.25 | <6.35 | ≥ 210 | < 0.3 | 98 | 1.89 | 20 (≈ 14.8 µg/mL) | <16.83 | <0.50 | > 2.31 | <21.21 | 79.64% | 97 | –
CC(C)C[C@@H]1NC(=O)[C@H](Cc2c[nH]c3ccccc23)NC(=O)[C@@H](CCCN)NC(=O)[C@H](CC(N)=O)NC(=O)[C@H](C)NC(=O)[C@@H](CC(C)C)NC1=O [Compound 5c] (cyclo(AN[dOrn]WL[dL])) | – | <0.40 | > 2.31 | <35.08 | 6.31 | 129 (≈ 181 µM) | < 1 | 96 | 1.32 | >80 | <16.27 | <0.48 | > 2.31 | <20.50 | 56.76% | 98 | –
